{"source": "patent EP3727588B1", "about": "“ACTIVATOR PEPTIDES OF THE ENZYME ADAM 10 AND RELATED USES IN THE TREATMENT OF ALZHEIMER'S DISEASE” (UNIVERSITA' DEGLI STUDI DI MILANO, priority 2017, dated 2019)", "key": {"[1]": {"tested_on": "dendritic spines of the hippocampal neurons", "test": "dendritic spine morphology and density in hippocampus, C57BL/6 mice", "assay_type": "in vivo", "details": "14 days' treatment", "description": "(§1) C57/BL6 adult mice were treated for 14 days with daily intraperitoneal injection of saline solution or peptides at a dose of 3 nmol/g (6-10 animals per experimental group). The animals were maintained in an enclosure at 25 ± 2 °C with an alternating light/dark cycle of 12 hours and had free access to water and food in the form of pellets (standard diet).\nFor the dendritic spine analysis, the protocol used is the one previously described by Kim et al, and envisages the use of DilDye lipophilic tracer (Invitrogen) to allow the dendritic spines to be viewed under the confocal microscope. The analysis of the dimensions and morphology of the spines was performed with ImageJ software.\nThe spines were classified, based on their morphology, into three different categories: thin, stubby (without a well-defined \"neck\") and mushroom shaped. To evaluate the possible effect induced by PEP3 on the spine morphology, two animals for each experimental group were perfused after 14 days of treatment and the brain was post-fixed in PFA and cut with a vibratome. To view the dendritic spines the lipophilic tracer DilDye was used. From the images acquired from the confocal microscope the number, length and width of the head of the dendritic spines of the hippocampal neurons were measured."}, "[2]": {"test": "Novel Object Recognition Test (NORT), C57BL/6 mice", "assay_type": "in vivo", "details": "14 days' treatment", "description": "as §1\nAfter 14 days of treatment the animals were subjected to the Novel Object Recognition Test (NORT). Such test is structured in three phases: habituation, familiarization and testing. In the first phase, the animal is placed in an empty arena and left free to explore the environment for 5 minutes. The day after, during the familiarization phase, the animal is placed in the same arena in the presence of two objects, identical in shape and size, for 10 minutes. Then the time spent by the animal exploring the individual object is recorded. On the third day, the animal is placed in the area in the presence of an identical object to that used in the familiarization phase and a new one. In this phase the difference in time spent by the animal exploring the familiar object and the new object is evaluated. […] In both phases of the test, the objects are positioned symmetrically and opposite inside the arena, and all the sessions are recorded with the aid of a video camera. […]"}, "[3]": {"test": "body weight and food intake during 14 days' treatment", "assay_type": "in vivo", "details": "C57BL/6 mice, daily intraperitoneal 3 nmol/g", "description": "as §1\nFor the entire duration of the treatment, on a daily basis, the weight and food intake of each animal were monitored and recorded, in order to evaluate any changes caused by the treatment. 24 hours after the last injection the mice were anaesthetized, and then the blood was taken through cardiac puncture, whereas the brain and liver of the animal were rapidly dissected to perform biochemical or immunohistological analyses.\nThe body weight and food intake were monitored and recorded on a daily basis."}, "[4]": {"test": "blood count and platelet count after 14 days' treatment", "assay_type": "in vivo, mice", "parameters": "key to Aggregate s: +, ++, +++ considering the presence of platelet aggregates detected in the blood smear that make the analysis difficult; +, ++, +++ considering the presence of platelet aggregates detected in the blood smear that make the analysis difficult; +, ++, +++ considering the presence of platelet aggregates detected in the blood smear that make the analysis difficult; key to Estimate Plt: A= appropriate platelet estimate", "description": "as §1\n(§2) The blood, collected through cardiac puncture, was analysed with a laser counter (ADVIA 120, Siemens) using specific software for the murine species. From each sample a blood smear was prepared, stained with the May Grünwald-Giemsa method, and used for the morphological analysis of the leukocytes, the red blood cells and the platelet estimate. After the automatic counting of the cells and the preparation of the smear, all the samples were centrifuged and the plasma was transferred into separate test tubes. The analysis of the plasma samples was performed through automatic spectrophotometer (ILAB-300, Instrumentation Laboratory). All the results were compared with the values provided by the company Charles River for mice of the same strain and age.\nThe range values are provided by Charles River for C57BL mice aged between 56-70 days, whose blood was collected by cardiac puncture after euthanasia."}, "[5]": {"test": "leukogram (white blood cell count) after 14 days' treatment", "assay_type": "in vivo, mice", "description": "as §1, §2\nExcept for the basophils and eosinophils, the total count and white blood cell (WBC) differential is lower with respect to the range values in all the animals treated. However, we noticed that the reference range values provided by the company Charles River are particularly high with respect to other values provided for other control groups and in other scientific articles in which the same animal strain is analysed. Justification for these differences found is provided by the pre-analytical factors used by Charles River in determining the different reference ranges (such as the method used, the type of sampling used, etc.). Despite this, the analyses of the data performed both individually and by examining the mean and median values in the different groups, show some differences in the values referring to mice treated with the active peptide with respect to the control mice (Table 2).\nThe following Table 2 illustrates the results of the white blood cell count. The reference values are provided by Charles River for C57BL mice of 56-70 days."}, "[6]": {"tested_on": "GFAP and Iba-1 positive cells", "test": "neuro-inflammation: GFAP and Iba-1 positive cells in hippocampus", "assay_type": "in vivo, mice", "details": "5 fields, 14 days' treatment", "description": "as §1\nAfter the sacrifice of the treated animal, a portion of liver and a brain hemisphere were fixed in 10% formalin for 48 hours, and included in paraffin. From each block of paraffin, serial sections 5/6µm thick were obtained. The sections were then stained with haematoxylin-eosin or processed through immunohistochemistry.\nSubsequently, to evaluate the presence of neuro-inflammation, 5 different fields of the hippocampus were considered to verify any presence of GFAP and Iba-1 positive cells."}, "[7]": {"details": "individual animal, 14 days, daily intraperitoneal 3 nmol/g"}}, "note": "“And” between values parts separate entries of the source, which are not always exact repeats. Identical values can stand only once. Peptide text beside a SMILES is read from it."}
{"smiles": "N=C(N)NCCC[C@H](NC(=O)CNC(=O)[C@@H](N)Cc1ccc(O)cc1)C(=O)N[C@@H](CCCCN)C(=O)N[C@@H](CCCCN)C(=O)N[C@@H](CCCNC(=N)N)C(=O)N[C@@H](CCCNC(=N)N)C(=O)N[C@@H](CCC(N)=O)C(=O)N[C@@H](CCCNC(=N)N)C(=O)N[C@@H](CCCNC(=N)N)C(=O)N[C@@H](CCCNC(=N)N)C(=O)NCC(=O)NCC(=O)N[C@@H](CO)C(=O)NCC(=O)N[C@@H](CCC(N)=O)C(=O)N1CCC[C@H]1C(=O)N1CCC[C@H]1C(=O)N[C@@H](CCC(=O)O)C(=O)N[C@@H](CCC(N)=O)C(=O)N[C@@H](CCC(=O)O)C(=O)N1CCC[C@H]1C(=O)N[C@@H](CCCNC(=N)N)C(=O)NCC(=O)O", "note": "[inPEP3, reference compound] (H-YGRKKRRQRRRGGSGQPPEQEPRG-OH)", "values": [{"measurement": "density of the dendritic spines", "setting": "[1]", "value": "10.15±1.05 n. of spines/10µm"}, {"measurement": "length of mushroom shaped spines", "setting": "[1]", "value": "0.85±0.04"}, {"measurement": "length of the spines", "setting": "[1]", "value": "0.83±0.02", "unit": "µm"}, {"measurement": "percentage of mushroom shaped spines", "setting": "[1]", "value": "30.81 ± 1.78", "unit": "%"}, {"measurement": "percentage of stubby spines", "setting": "[1]", "value": "42.78 ± 1.86", "unit": "%"}, {"measurement": "percentage of thin spines", "setting": "[1]", "value": "26.41 ± 1.42", "unit": "%"}, {"measurement": "width of the head of spines", "setting": "[1]", "value": "0.79±0.02", "unit": "µm"}, {"measurement": "time exploring the new object", "setting": "[2]", "value": "59.24 ± 4.58", "unit": "%"}, {"measurement": "food intake (ratio daily food intake / mean body weight)", "setting": "[3]", "value": "99.03±2.03", "unit": "%"}, {"measurement": "(Ht)", "setting": "[4]; group mean", "value": 48.6, "unit": "%"}, {"measurement": "Hb", "setting": "[4]; group mean", "value": 12.3, "unit": "g/dL"}, {"measurement": "Mean Corpuscula r Hb (MCH)", "setting": "[4]; group mean", "value": 13.4, "unit": "pg"}, {"measurement": "Mean Corpuscula r Hb Conc. MCHC", "setting": "[4]; group mean", "value": 25.3, "unit": "%"}, {"measurement": "Platelet count", "setting": "[4]; group mean", "value": 661000, "unit": "µL⁻¹"}, {"measurement": "Red blood cells", "setting": "[4]; group mean", "value": "9.16e+06", "unit": "µL⁻¹"}, {"measurement": "Red cell distribution width (RDW)", "setting": "[4]; group mean", "value": 20.7, "unit": "%"}, {"measurement": "Vol. Mean Corp. Vol. (MCV)", "setting": "[4]; group mean", "value": 53.1, "unit": "fL"}, {"measurement": "(Ht)", "setting": "[4]; group median", "value": -48.4, "unit": "%"}, {"measurement": "Hb", "setting": "[4]; group median", "value": -12.3, "unit": "g/dL"}, {"measurement": "Platelet count", "setting": "[4]; group median", "value": -659000, "unit": "µL⁻¹"}, {"measurement": "Red blood cells", "setting": "[4]; group median", "value": "-9.13e+06", "unit": "µL⁻¹"}, {"measurement": "Red cell distribution width (RDW)", "setting": "[4]; group median", "value": -20.5, "unit": "%"}, {"measurement": "Vol. Mean Corp. Vol. (MCV)", "setting": "[4]; group median", "value": -53.1, "unit": "fL"}, {"measurement": "Estimate Plt", "setting": "[4]; individual animal, blood smear, first part of cell", "value": "A"}, {"measurement": "Aggregate s", "setting": "[4]; individual animal, blood smear, second part of cell", "value": "+++"}, {"measurement": "(Ht)", "setting": "[4]; [7]", "value": "50.1% and 49.5% and 47.8% and 48.7% and 48% and 47.3%"}, {"measurement": "Hb", "setting": "[4]; [7]", "value": "12.6 g/dL (2×) and 12 g/dL (2×) and 12.4 g/dL and 12.1 g/dL"}, {"measurement": "Mean Corpuscula r Hb (MCH)", "setting": "[4]; [7]", "value": "13.5 Pg (3×) and 13.3 Pg and 13.4 Pg (2×)"}, {"measurement": "Mean Corpuscula r Hb Conc. MCHC", "setting": "[4]; [7]", "value": "25.1% (2×) and 25.5% (2×) and 25.2% and 25.4%"}, {"measurement": "Platelet count", "setting": "[4]; [7]", "value": "522000 µL⁻¹ and 661000 µL⁻¹ and 656000 µL⁻¹ and 341000 µL⁻¹ and 998000 µL⁻¹ and 790000 µL⁻¹"}, {"measurement": "Red blood cells", "setting": "[4]; [7]", "value": "9.36e+06 µL⁻¹ and 9.34e+06 µL⁻¹ and 9.01e+06 µL⁻¹ and 9.21e+06 µL⁻¹ and 9.04e+06 µL⁻¹ and 8.97e+06 µL⁻¹"}, {"measurement": "Red cell distribution width (RDW)", "setting": "[4]; [7]", "value": "20.4% and 20.6% and 21.4% and 21.8% and 19.6% and 20.1%"}, {"measurement": "Vol. Mean Corp. Vol. (MCV)", "setting": "[4]; [7]", "value": "53.5 fL and 53 fL and 53.1 fL (2×) and 52.9 fL and 52.7 fL"}, {"measurement": "Basophils", "setting": "[5]; group mean", "value": 0, "unit": "µL⁻¹"}, {"measurement": "Eosinophils", "setting": "[5]; group mean", "value": 39.9, "unit": "µL⁻¹"}, {"measurement": "Lymphocytes", "setting": "[5]; group mean", "value": 1935.9, "unit": "µL⁻¹"}, {"measurement": "Monocytes", "setting": "[5]; group mean", "value": 137.1, "unit": "µL⁻¹"}, {"measurement": "Neutrophils", "setting": "[5]; group mean", "value": 990.5, "unit": "µL⁻¹"}, {"measurement": "White blood cells", "setting": "[5]; group mean", "value": 3103.3, "unit": "µL⁻¹"}, {"measurement": "Basophils", "setting": "[5]; group median", "value": 0, "unit": "µL⁻¹"}, {"measurement": "Eosinophils", "setting": "[5]; group median", "value": "(-0.0378). x10^3/µL"}, {"measurement": "Lymphocytes", "setting": "[5]; group median", "value": "(-1.837). x10^3/µL"}, {"measurement": "Monocytes", "setting": "[5]; group median", "value": "(-0.0918). x10^3/µL"}, {"measurement": "Neutrophils", "setting": "[5]; group median", "value": "(-0.2468). x10^3/µL"}, {"measurement": "White blood cells", "setting": "[5]; group median", "value": "(-2.295). x10^3/µL"}, {"measurement": "Basophils", "setting": "[5]; [7]", "value": 0, "unit": "µL⁻¹"}, {"measurement": "Eosinophils", "setting": "[5]; [7]", "value": "26.1 µL⁻¹ and 31 µL⁻¹ and 44.8 µL⁻¹ and 62 µL⁻¹ and 36 µL⁻¹ and 39.6 µL⁻¹"}, {"measurement": "Lymphocytes", "setting": "[5]; [7]", "value": "2218.5 µL⁻¹ and 1271 µL⁻¹ and 1971.2 µL⁻¹ and 2976 µL⁻¹ and 1476 µL⁻¹ and 1702.8 µL⁻¹"}, {"measurement": "Monocytes", "setting": "[5]; [7]", "value": "104.4 µL⁻¹ and 15.5 µL⁻¹ and 179.2 µL⁻¹ and 372 µL⁻¹ and 72 µL⁻¹ and 79.2 µL⁻¹"}, {"measurement": "Neutrophils", "setting": "[5]; [7]", "value": "261 µL⁻¹ and 232.5 µL⁻¹ and 2284.8 µL⁻¹ and 2790 µL⁻¹ and 216 µL⁻¹ and 158.4 µL⁻¹"}, {"measurement": "White blood cells", "setting": "[5]; [7]", "value": "2610 µL⁻¹ and 1550 µL⁻¹ and 4480 µL⁻¹ and 6200 µL⁻¹ and 1800 µL⁻¹ and 1980 µL⁻¹"}, {"measurement": "number of GFAP positive cells", "setting": "[6]", "value": "31.67±1.12"}, {"measurement": "number of Iba-1 positive cells", "setting": "[6]", "value": "8.50±0.43"}]}
